According to patent US9988400B2 (Genentech, Inc., priority 2013, dated 2018):

Target: T1, HEK cells stably transfected with tetracycline inducible hNR1 and hNR2A (Homo sapiens, UniProt Q05586+Q12879)
T1 construct: expressed in transfected cells; host or cells: HEK cells, stably transfected, tetracycline/doxycycline inducible
Experiment: Assay 1: Cell-Based Assay, cytosolic calcium response to positive allosteric modulators (with 30 μM glycine and 300 nM L-glutamate, EC30)
Conditions: Table 2; for EC50: cytosolic calcium response, with 30 μM glycine and 300 nM L-glutamate (EC30), — = no plateau was reached; for Max %: responses scaled relative to 100 μM L-glutamate maximal response (100%) and 0 μM L-glutamate (0%)
In short: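 Cells induced 24 h with 7.5 μg mL^−1 doxycycline plus 500 μM (+)-ketamine, loaded 60 min at 37 °C with calcium dye in Mg-free HBSS (1.8 mM Ca, probenecid, 10 μM (+)-ketamine, pH 7.15). Peak RFU over 5 min after compound addition, scaled to 100 μM L-glutamate (100%) and 0 μM (0%); four-parameter Hill fit for EC50, max % if no plateau.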

T1 sequence (Q12879 23-1464, other chains not shown): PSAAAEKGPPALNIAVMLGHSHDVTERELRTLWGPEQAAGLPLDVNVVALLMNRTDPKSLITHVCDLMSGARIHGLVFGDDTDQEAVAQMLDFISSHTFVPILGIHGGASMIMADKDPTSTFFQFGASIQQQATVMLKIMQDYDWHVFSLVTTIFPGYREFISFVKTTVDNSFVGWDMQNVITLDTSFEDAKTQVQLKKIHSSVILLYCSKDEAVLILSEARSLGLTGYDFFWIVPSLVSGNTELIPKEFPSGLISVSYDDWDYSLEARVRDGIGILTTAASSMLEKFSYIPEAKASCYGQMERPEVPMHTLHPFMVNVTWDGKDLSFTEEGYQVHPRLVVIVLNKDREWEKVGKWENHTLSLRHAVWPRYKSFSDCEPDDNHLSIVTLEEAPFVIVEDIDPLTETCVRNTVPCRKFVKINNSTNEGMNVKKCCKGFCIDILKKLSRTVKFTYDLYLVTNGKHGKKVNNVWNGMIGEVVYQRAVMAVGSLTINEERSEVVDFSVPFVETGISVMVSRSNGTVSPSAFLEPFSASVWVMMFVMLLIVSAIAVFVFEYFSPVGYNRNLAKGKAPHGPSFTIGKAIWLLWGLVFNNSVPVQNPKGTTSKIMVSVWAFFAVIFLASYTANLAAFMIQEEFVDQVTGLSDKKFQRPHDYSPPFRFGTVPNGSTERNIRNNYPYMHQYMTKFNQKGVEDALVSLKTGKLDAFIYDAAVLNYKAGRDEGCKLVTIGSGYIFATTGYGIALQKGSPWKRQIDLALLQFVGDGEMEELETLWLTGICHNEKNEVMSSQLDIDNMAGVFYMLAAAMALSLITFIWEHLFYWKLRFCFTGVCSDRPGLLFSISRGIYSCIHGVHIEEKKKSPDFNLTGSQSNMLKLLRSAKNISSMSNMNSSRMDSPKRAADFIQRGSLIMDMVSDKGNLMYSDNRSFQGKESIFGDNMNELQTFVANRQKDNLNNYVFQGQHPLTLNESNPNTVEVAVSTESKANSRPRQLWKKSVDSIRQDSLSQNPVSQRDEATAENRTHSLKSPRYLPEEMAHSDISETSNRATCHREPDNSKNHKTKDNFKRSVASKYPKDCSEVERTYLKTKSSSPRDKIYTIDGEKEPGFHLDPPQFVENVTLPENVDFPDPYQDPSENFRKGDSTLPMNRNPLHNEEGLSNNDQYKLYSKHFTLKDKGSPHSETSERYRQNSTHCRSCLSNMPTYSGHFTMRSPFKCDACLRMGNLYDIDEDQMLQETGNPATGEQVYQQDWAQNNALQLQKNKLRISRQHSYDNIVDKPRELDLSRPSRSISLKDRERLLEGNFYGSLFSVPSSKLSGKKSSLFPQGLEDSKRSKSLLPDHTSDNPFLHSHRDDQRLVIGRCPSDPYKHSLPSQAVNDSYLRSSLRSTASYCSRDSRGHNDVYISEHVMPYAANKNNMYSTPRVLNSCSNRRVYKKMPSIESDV

| Compound | EC50 | Max % |
| --- | --- | --- |
| CCN(Cc1cc(=O)n2c(C(C)C)c(C)sc2n1)c1ccc(F)cc1 [Example 9.2, 7-[(N-ethyl-4-fluoro-anilino)methyl]-3-isopropyl-2-methyl-thiazolo[3,2-a]pyrimidin-5-one] | 2900 nM | 117% |
| CCN(Cc1cc(=O)n2c(C3CCC3)c(C)sc2n1)c1ccc(F)cc1 [Example 10.1, 3-cyclobutyl-7-[(N-ethyl-4-fluoro-anilino)methyl]-2-methyl-thiazolo[3,2-a]pyrimidin-5-one] | 4400 nM | 130% |
| CCN(Cc1cc(=O)n2c(C(C)(C)C)c(C)sc2n1)c1ccc(F)cc1 [Example 10.2, 3-tert-butyl-7-[(N-ethyl-4-fluoro-anilino)methyl]-2-methyl-thiazolo[3,2-a]pyrimidin-5-one] | 5300 nM | 110% |
| CCN(Cc1cc(=O)n2c(C(C)=O)c(C)sc2n1)c1ccc(F)cc1 [Example 10.3, 3-acetyl-7-[[ethyl(4-fluorophenyl)amino]methyl]-2-methyl-5H-[1,3]thiazolo[3,2-a]pyrimidin-5-one] | 535 nM | 177% |
| CCN(Cc1cc(=O)n2c(C(=O)NC)c(C)sc2n1)c1ccc(F)cc1 [Example 10.4, 7-[(N-ethyl-4-fluoro-anilino)methyl]-N,2-dimethyl-5-oxo-thiazolo[3,2-a]pyrimidine-3-carboxamide] | 593 nM | 186% |
| CCN(Cc1cc(=O)n2c(CN3CC(O)C3)c(C)sc2n1)c1ccc(F)cc1 [Example 10.10, 7-[(N-ethyl-4-fluoro-anilino)methyl]-3-[(3-hydroxyazetidin-1-yl)methyl]-2-methyl-thiazolo[3,2-a]pyrimidin-5-one] | 18800 nM | 132% |
| CCN(Cc1cc(=O)n2c(C(O)C(F)(F)F)c(C)sc2n1)c1ccc(F)cc1 (stereo not drawn) [Example 10.11, 7-[(N-ethyl-4-fluoro-anilino)methyl]-2-methyl-3-(2,2,2-trifluoro-1-hydroxy-ethyl)thiazolo[3,2-a]pyrimidin-5-one] | 1200 nM | 167% |
| CCN(Cc1cc(=O)n2c(CO)c(C)sc2n1)c1ccc(F)cc1 [Example 10.12, 7-((ethyl(4-fluorophenyl)amino)methyl)-3-(hydroxymethyl)-2-methyl-5H-thiazolo[3,2-a]pyrimidin-5-one] | 2100 nM | 149% |
| CCN(Cc1cc(=O)n2c(COC)c(C)sc2n1)c1ccc(F)cc1 [Example 10.13, 7-[[ethyl(4-fluorophenyl)amino]methyl]-3-(methoxymethyl)-2-methyl-5H-[1,3]thiazolo[3,2-a]pyrimidin-5-one] | 345 nM | 165% |
| CCN(Cc1cc(=O)n2c(Cn3cccn3)c(C)sc2n1)c1ccc(F)cc1 [Example 10.14, 7-[[Ethyl(4-fluorophenyl)amino]methyl]-2-methyl-3-(1H-pyrazol-1-ylmethyl)-5H-[1,3]thiazolo[3,2-a]pyrimidin-5-one] | 1500 nM | 172% |
| CCN(Cc1cc(=O)n2c(CS(C)(=O)=O)c(C)sc2n1)c1ccc(F)cc1 [Example 10.15, 7-[(N-ethyl-4-fluoro-anilino)methyl]-2-methyl-3-(methylsulfonylmethyl)thiazolo[3,2-a]pyrimidin-5-one] | 1300 nM | 156% |
| CCN(Cc1cc(=O)n2c(C(C)(C)C)csc2n1)c1ccc(F)cc1 [Example 10.18, 3-tert-butyl-7-[(N-ethyl-4-fluoro-anilino)methyl]thiazolo[3,2-a]pyrimidin-5-one] | 16900 nM | 88.2% |
| CCN(Cc1cc(=O)n2c(C(C)(C)O)csc2n1)c1ccc(F)cc1 [Example 10.19, 7-[(N-ethyl-4-fluoro-anilino)methyl]-3-(1-hydroxy-1-methyl-ethyl)thiazolo[3,2-a]pyrimidin-5-one] | 837 nM | 165% |
| CCN(Cc1cc(=O)n2c(CNCCO)c(C)sc2n1)c1ccc(F)cc1 [Example 10.22, 7-[(N-ethyl-4-fluoro-anilino)methyl]-3-[(2-hydroxyethylamino)methyl]-2-methyl-thiazolo[3,2-a]pyrimidin-5-one] | 7500 nM | 156% |
| CCN(Cc1cc(=O)n2c(CO)c(C)sc2n1)c1cccc(C#N)c1 [Example 10.23, 3-(ethyl((3-(hydroxymethyl)-2-methyl-5-oxo-5H-thiazolo[3,2-a]pyrimidin-7-yl)methyl)amino)benzonitrile] | 22900 nM | 169% |
| CCN(Cc1cc(=O)n2c(COC)c(C)sc2n1)c1cccc(C#N)c1 [Example 10.24, 3-[ethyl-[[3-(methoxymethyl)-2-methyl-5-oxo-thiazolo[3,2-a]pyrimidin-7-yl]methyl]amino]benzonitrile] | 8900 nM | 160% |
| CCN(Cc1cc(=O)n2c(CSC)c(C)sc2n1)c1ccc(F)cc1 [Example 10.25, 7-((ethyl(4-fluorophenyl)amino)methyl)-2-methyl-3-((methylthio)methyl)-5H-thiazolo[3,2-a]pyrimidin-5-one] | 345 nM | 165% |
| CCN(Cc1cc(=O)n2c(F)c(C)sc2n1)c1ccc(F)cc1 [Example 11.2, 7-[(N-ethyl-4-fluoro-anilino)methyl]-3-fluoro-2-methyl-thiazolo[3,2-a]pyrimidin-5-one] | – | 107% |
| CCN(Cc1cc(=O)n2cc(C)sc2n1)c1ccc(F)cc1 [Example 11.3, 7-[(N-ethyl-4-fluoro-anilino)methyl]-2-methyl-thiazolo[3,2-a]pyrimidin-5-one] | 3200 nM | 132% |
| CCN(Cc1cc(=O)n2c(Cl)csc2n1)c1ccc(F)cc1 [Example 11.5, 3-chloro-7-[(N-ethyl-4-fluoro-anilino)methyl]thiazolo[3,2-a]pyrimidin-5-one] | 4600 nM | 167% |

Continued, values first:

| EC50 | Max % | Compound |
| --- | --- | --- |
| 7000 nM | 108% | CCN(Cc1cc(=O)n2c(C3CCCC3)c(C)sc2n1)c1ccc(F)cc1 [Example 9.3, 3-cyclopentyl-7-[(N-ethyl-4-fluoro-anilino)methyl]-2-methyl-thiazolo[3,2-a]pyrimidin-5-one] |
| 9200 nM | 114% | CCN(Cc1cc(=O)n2c(C3CCOCC3)c(C)sc2n1)c1ccc(F)cc1 [Example 9.4, 7-[(N-ethyl-4-fluoro-anilino)methyl]-2-methyl-3-tetrahydropyran-4-yl-thiazolo[3,2-a]pyrimidin-5-one] |
| 495 nM | 158% | CCN(Cc1cc(=O)n2c(C(C)(C)O)c(C)sc2n1)c1ccc(F)cc1 [Example 10.5, 7-[(N-ethyl-4-fluoro-anilino)methyl]-3-(1-hydroxy-1-methyl-ethyl)-2-methyl-thiazolo[3,2-a]pyrimidin-5-one] |
| 548 nM | 176% | CCN(Cc1cc(=O)n2c(C(C)O)c(C)sc2n1)c1ccc(F)cc1 (stereo not drawn) [Example 10.6, 7-[(N-ethyl-4-fluoro-anilino)methyl]-3-(1-hydroxyethyl)-2-methyl-thiazolo[3,2-a]pyrimidin-5-one] |
| 23400 nM | 127% | CCN(Cc1cc(=O)n2c(CN(C)C)c(C)sc2n1)c1ccc(F)cc1 [Example 10.7, 3-[(dimethylamino)methyl]-7-[[ethyl(4-fluorophenyl)amino]methyl]-2-methyl-5H-[1,3]thiazolo[3,2-a]pyrimidin-5-one] |
| – | 63.5% | CCN(Cc1cc(=O)n2c(CN3CCC3)c(C)sc2n1)c1ccc(F)cc1 [Example 10.8, 3-(azetidin-1-ylmethyl)-7-[(N-ethyl-4-fluoro-anilino)methyl]-2-methyl-thiazolo[3,2-a]pyrimidin-5-one] |
| – | 72.1% | CCN(Cc1cc(=O)n2c(CN3CCCC3)c(C)sc2n1)c1ccc(F)cc1 [Example 10.9, 7-[(N-ethyl-4-fluoro-anilino)methyl]-2-methyl-3-(pyrrolidin-1-ylmethyl)thiazolo[3,2-a]pyrimidin-5-one] |
| 2700 nM | 147% | CCOCc1c(C)sc2nc(CN(CC)c3ccc(F)cc3)cc(=O)n12 [Example 10.16, 3-(ethoxymethyl)-7-[(N-ethyl-4-fluoro-anilino)methyl]-2-methyl-thiazolo[3,2-a]pyrimidin-5-one] |
| 1200 nM | 174% | CCN(Cc1cc(=O)n2c(CC#N)c(C)sc2n1)c1ccc(F)cc1 [Example 10.17, 2-[7-[(N-ethyl-4-fluoro-anilino)methyl]-2-methyl-5-oxo-thiazolo[3,2-a]pyrimidin-3-yl]acetonitrile] |
| 2200 nM | 178% | CCN(Cc1cc(=O)n2c(C(C)O)csc2n1)c1ccc(F)cc1 (stereo not drawn) [Example 10.20, 7-[(N-ethyl-4-fluoro-anilino)methyl]-3-(1-hydroxyethyl)thiazolo[3,2-a]pyrimidin-5-one] |
| – | 117% | CCN(Cc1cc(=O)n2c(CN3CCC34COC4)c(C)sc2n1)c1ccc(F)cc1 [Example 10.21, 7-[(N-ethyl-4-fluoro-anilino)methyl]-2-methyl-3-(6-oxa-1-azaspiro[3.3]heptan-1-ylmethyl)thiazolo[3,2-a]pyrimidin-5-one] |
| 2000 nM | 159% | CCN(Cc1cc(=O)n2c(Cl)c(C)sc2n1)c1ccc(F)cc1 [Example 11.1, 3-chloro-7-[[ethyl(4-fluorophenyl)amino]methyl]-2-methyl-5H-[1,3]thiazolo[3,2-a]pyrimidin-5-one] |
| – | 103% | CCN(Cc1cc(=O)n2c(I)c(C)sc2n1)c1ccc(F)cc1 [Example 11.4, 7-[(N-ethyl-4-fluoro-anilino)methyl]-3-iodo-2-methyl-thiazolo[3,2-a]pyrimidin-5-one] |
| 5000 nM | 133% | CCN(Cc1cc(=O)n2cc(C)sc2n1)c1ccccc1 [Example 11.6, 7-[(N-ethylanilino)methyl]-2-methyl-thiazolo[3,2-a]pyrimidin-5-one] |
